One molecule from patent publication US6911209B1, “Method of treating sick sinus syndrome with levosimendan” (Orion Corporation, priority 1999, dated 2005) can be followed below.

For this experiment, the system named is heart rhythm of a patient. The experiment is described as follows: Clinical data: oral levosimendan in a patient with wandering atrial pacemaker, first degree AV block, junctional rhythm. The class given is in vivo, human. How it is done:
The underlying heart rhythm of a patient on intravenous milrinone was wandering atrial pacemaker with a first degree AV block alternating with a junctional rhythm and sinus rhythm. The overall heart rate was around 70 bpm. Because of failure to wean the milrinone the patient was entered into oral levosimendan first at 1 mg followed by 2 mg and subsequently by 4 mg qd. […] Their levosimendan dose was reduced to 2 mg and maintained at that dose during the taper of intravenous milrinone. […] Milrinone was tapered off and the patient could be transferred out of the intensive care unit. The patient's dose of levosimendan was continued at 1 mg three times a day.

The structures appear in SMILES notation.

Turning to `CC1CC(=O)NN=C1c1ccc(NN=C(C#N)C#N)cc1` (single isomer, unassigned; (-)) [levosimendan, (−)-[[4-(1,4,5,6-tetrahydro-4-methyl-6-oxo-3-pyridazinyl)phenyl]hydrazono]propanedinitrile], the cardiac rhythm result (levosimendan 2 mg during taper of intravenous milrinone) is given as “regularize with a vast majority of the beats being sinus node in origin”. Moreover, the overall heart rate (levosimendan dose reduced to 2 mg, maintained during taper of intravenous milrinone) is 80-85 bpm. In addition, the heart rate result (oral levosimendan 1 mg, then 2 mg, then 4 mg qd, patient on intravenous milrinone, baseline around 70 bpm) is “over 90 bpm”.
